The target of test [1] is Neuronal acetylcholine receptor subunit alpha-7 (Rattus norvegicus, UniProt Q05941). As to the kind of experiment: Antagonist activity at rat alpha7 nACh receptor expressed in Xenopus oocyte assessed as inhibition of acetylcholine-induced response at -70 mV holding potential by voltage-clamp based electrophysiological assay. The format is cell-based.
Test [2] has as its target Nicotinic acetylcholine receptor alpha9/alpha10 (Rattus norvegicus, UniProt P43144+Q9JLB5). As to the kind of experiment: Antagonist activity at rat alpha9alpha10 nACh receptor expressed in Xenopus oocyte assessed as inhibition of acetylcholine-induced response at -70 mV holding potential by voltage-clamp based electrophysiological assay. It is filed as cell-based.

The term IC50 denotes the midpoint of a concentration-inhibition curve.

Where a SMILES comes first, the peptide text is derived from it.

Sequence of Nicotinic acetylcholine receptor alpha9/alpha10 (P43144 whole entry): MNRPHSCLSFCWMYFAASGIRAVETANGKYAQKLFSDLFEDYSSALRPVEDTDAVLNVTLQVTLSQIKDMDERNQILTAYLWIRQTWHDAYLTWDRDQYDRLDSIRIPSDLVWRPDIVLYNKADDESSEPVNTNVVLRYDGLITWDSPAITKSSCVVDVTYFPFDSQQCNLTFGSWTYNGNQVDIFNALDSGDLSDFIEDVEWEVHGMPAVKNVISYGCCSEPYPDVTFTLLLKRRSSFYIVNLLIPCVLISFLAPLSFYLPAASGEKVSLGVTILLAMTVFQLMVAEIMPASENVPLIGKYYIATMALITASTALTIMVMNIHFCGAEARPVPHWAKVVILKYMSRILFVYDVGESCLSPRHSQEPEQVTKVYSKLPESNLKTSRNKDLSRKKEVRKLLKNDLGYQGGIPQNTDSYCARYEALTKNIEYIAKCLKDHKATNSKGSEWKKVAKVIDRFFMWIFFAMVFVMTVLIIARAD
Sequence of Nicotinic acetylcholine receptor alpha9/alpha10 (Q9JLB5 whole entry): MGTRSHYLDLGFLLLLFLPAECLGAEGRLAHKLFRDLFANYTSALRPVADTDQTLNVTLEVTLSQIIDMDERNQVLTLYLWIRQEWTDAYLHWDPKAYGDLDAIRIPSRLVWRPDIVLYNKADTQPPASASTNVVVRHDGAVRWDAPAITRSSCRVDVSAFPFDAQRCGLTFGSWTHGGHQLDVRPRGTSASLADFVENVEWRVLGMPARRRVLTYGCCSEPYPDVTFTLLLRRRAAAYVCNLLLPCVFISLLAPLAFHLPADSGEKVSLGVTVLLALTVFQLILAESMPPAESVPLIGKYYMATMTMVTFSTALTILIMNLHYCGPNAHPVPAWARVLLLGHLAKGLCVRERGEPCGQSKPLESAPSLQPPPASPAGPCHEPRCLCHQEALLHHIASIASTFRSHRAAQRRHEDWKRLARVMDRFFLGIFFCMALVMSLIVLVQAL
Sequence of Neuronal acetylcholine receptor subunit alpha-7 (Q05941 whole entry): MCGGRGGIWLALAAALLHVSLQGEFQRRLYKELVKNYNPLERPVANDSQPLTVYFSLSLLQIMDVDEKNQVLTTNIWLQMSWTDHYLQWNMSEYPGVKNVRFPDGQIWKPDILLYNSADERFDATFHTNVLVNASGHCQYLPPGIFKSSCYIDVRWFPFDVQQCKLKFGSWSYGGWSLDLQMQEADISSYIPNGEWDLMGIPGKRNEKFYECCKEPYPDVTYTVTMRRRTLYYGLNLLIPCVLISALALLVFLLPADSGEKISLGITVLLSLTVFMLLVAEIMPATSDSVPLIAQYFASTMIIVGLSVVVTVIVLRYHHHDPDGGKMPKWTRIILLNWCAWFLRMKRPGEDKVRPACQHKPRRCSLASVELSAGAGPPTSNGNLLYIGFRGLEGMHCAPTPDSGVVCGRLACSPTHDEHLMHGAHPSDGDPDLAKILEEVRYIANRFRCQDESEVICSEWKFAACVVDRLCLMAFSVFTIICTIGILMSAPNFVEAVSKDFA

On to `CC[C@H](C)[C@@H]1NC(=O)[C@H](CCCNC(=N)N)NC(=O)[C@H](CCCNC(=N)N)NC(=O)[C@@H](NC(=O)[C@H](C)NC(=O)[C@H](CCCNC(=N)N)NC(=O)[C@H](CCCNC(=N)N)NC(=O)[C@H](CCCNC(=N)N)NC(=O)[C@H](CCCNC(=N)N)NC(=O)[C@H](CC(=O)O)NC(=O)[C@H](Cc2ccc(O)cc2)NC(=O)[C@@H]2CCCN2C(=O)[C@H](CO)NC(=O)[C@H](CCCNC(=N)N)NC(=O)[C@@H]2CSSC[C@H](NC(=O)[C@@H](N)[C@@H](C)O)C(=O)N[C@@H](CCCNC(=N)N)C(=O)N[C@@H](CO)C(=O)N[C@@H](CO)C(=O)NCC(=O)N[C@@H](CCCNC(=N)N)C(=O)N[C@@H](Cc3ccc(O)cc3)C(=O)N2)CSSC[C@@H](C(=O)N[C@H](C(=O)O)C(C)C)NC(=O)[C@H](C)NC(=O)[C@H](CC(=O)O)NC(=O)[C@H]([C@@H](C)O)NC1=O`, for which the values for the IC50 in test [1] and in test [2] were 4620 nM and 16 nM, respectively.
With `CC[C@H](C)[C@@H]1NC(=O)[C@H](CCCNC(=N)N)NC(=O)[C@H](CCCNC(=N)N)NC(=O)[C@@H]2CSSC[C@H](NC(=O)[C@H](Cc3ccc(O)cc3)NC(=O)[C@H](CCCNC(=N)N)NC(=O)CNC(=O)[C@H](CO)NC(=O)[C@H](CO)NC(=O)[C@H](CCCNC(=N)N)NC(=O)[C@@H](NC(=O)[C@@H](N)[C@@H](C)O)CSSC[C@@H](C(=O)N[C@H](C(=O)O)C(C)C)NC(=O)[C@H](C)NC(=O)[C@H](CC(=O)O)NC(=O)[C@H]([C@@H](C)O)NC1=O)C(=O)N[C@@H](CCCNC(=N)N)C(=O)N[C@@H](CO)C(=O)N1CCC[C@H]1C(=O)N[C@@H](Cc1ccc(O)cc1)C(=O)N[C@@H](C)C(=O)N[C@@H](CCCNC(=N)N)C(=O)N[C@@H](CCCNC(=N)N)C(=O)N[C@@H](CCCNC(=N)N)C(=O)N[C@@H](CCCNC(=N)N)C(=O)N[C@@H](Cc1ccc(O)cc1)C(=O)N2` (HELM PEPTIDE1{T.C.R.S.S.G.R.Y.C.R.S.P.Y.A.R.R.R.R.Y.C.R.R.I.T.D.A.C.V}$PEPTIDE1,PEPTIDE1,2:R3-27:R3|PEPTIDE1,PEPTIDE1,9:R3-20:R3$$$V2.0), the IC50 in test [1] stood at 7640 nM; in test [2] it was 4.7 nM.
For `CC[C@H](C)[C@@H]1NC(=O)[C@H](CCCNC(=N)N)NC(=O)[C@H](CCCNC(=N)N)NC(=O)[C@@H]2CSSC[C@H](NC(=O)[C@H](Cc3ccc(O)cc3)NC(=O)[C@H](CCCNC(=N)N)NC(=O)CNC(=O)[C@H](CO)NC(=O)[C@H](CO)NC(=O)[C@H](CCCNC(=N)N)NC(=O)[C@@H](NC(=O)[C@@H](N)[C@@H](C)O)CSSC[C@@H](C(=O)N[C@H](C(=O)O)C(C)C)NC(=O)[C@H](C)NC(=O)[C@H](CC(=O)O)NC(=O)[C@H]([C@@H](C)O)NC1=O)C(=O)N[C@@H](CCCNC(=N)N)C(=O)N[C@@H](CO)C(=O)N1CCC[C@H]1C(=O)N[C@@H](Cc1ccc(O)cc1)C(=O)N[C@@H](CC(=O)O)C(=O)N[C@@H](C)C(=O)N[C@@H](CCCNC(=N)N)C(=O)N[C@@H](CCCNC(=N)N)C(=O)N[C@@H](CCCNC(=N)N)C(=O)N[C@@H](Cc1ccc(O)cc1)C(=O)N2`, the half-maximal inhibitory concentration (IC50) is 6440 nM in test [1] and 34 nM in test [2].
On to `CC[C@H](C)[C@@H]1NC(=O)[C@H](CCCNC(=N)N)NC(=O)[C@H](CCCNC(=N)N)NC(=O)[C@@H](NC(=O)[C@H](Cc2ccc(O)cc2)NC(=O)[C@H](CCCNC(=N)N)NC(=O)[C@H](CCCNC(=N)N)NC(=O)[C@H](CCCNC(=N)N)NC(=O)[C@H](CCCNC(=N)N)NC(=O)[C@H](CC(=O)O)NC(=O)[C@H](Cc2ccc(O)cc2)NC(=O)[C@@H]2CCCN2C(=O)[C@H](CO)NC(=O)[C@H](CCCNC(=N)N)NC(=O)[C@@H]2CSSC[C@H](NC(=O)[C@@H](N)[C@@H](C)O)C(=O)N[C@@H](CCCNC(=N)N)C(=O)N[C@@H](CO)C(=O)N[C@@H](CO)C(=O)NCC(=O)N[C@@H](CCCNC(=N)N)C(=O)N[C@@H](Cc3ccc(O)cc3)C(=O)N2)CSSC[C@@H](C(=O)N[C@H](C(=O)O)C(C)C)NC(=O)[C@H](C)NC(=O)[C@H](CC(=O)O)NC(=O)[C@H](C)NC1=O`, for which the half-maximal inhibitory concentration (IC50) is 650 nM in test [1] and 21 nM in test [2].
As for `CC[C@H](C)[C@@H]1NC(=O)[C@H](CCCNC(=N)N)NC(=O)[C@H](CCCNC(=N)N)NC(=O)[C@@H](NC(=O)[C@H](Cc2ccc(O)cc2)NC(=O)[C@H](CCCNC(=N)N)NC(=O)[C@H](CCCNC(=N)N)NC(=O)[C@H](CCCNC(=N)N)NC(=O)[C@H](CCCNC(=N)N)NC(=O)[C@H](CC(=O)O)NC(=O)[C@H](Cc2ccc(O)cc2)NC(=O)[C@@H]2CCCN2C(=O)[C@H](CO)NC(=O)[C@H](CCCNC(=N)N)NC(=O)[C@@H]2CSSC[C@H](NC(=O)[C@@H](N)[C@@H](C)O)C(=O)N[C@@H](CCCNC(=N)N)C(=O)N[C@@H](CO)C(=O)N[C@@H](CO)C(=O)N[C@@H](C)C(=O)N[C@@H](CCCNC(=N)N)C(=O)N[C@@H](Cc3ccc(O)cc3)C(=O)N2)CSSC[C@H](C(=O)N[C@H](C(=O)O)C(C)C)NC(=O)[C@H](C)NC(=O)[C@H](CC(=O)O)NC(=O)[C@H]([C@@H](C)O)NC1=O`, the concentration for half-maximal inhibition (IC50) in test [1] turned out to be 1460 nM; in test [2], 4.5 nM.
For `CC[C@H](C)[C@@H]1NC(=O)[C@H](C)NC(=O)[C@H](CCCNC(=N)N)NC(=O)[C@@H](NC(=O)[C@H](Cc2ccc(O)cc2)NC(=O)[C@H](CCCNC(=N)N)NC(=O)[C@H](CCCNC(=N)N)NC(=O)[C@H](CCCNC(=N)N)NC(=O)[C@H](CCCNC(=N)N)NC(=O)[C@H](CC(=O)O)NC(=O)[C@H](Cc2ccc(O)cc2)NC(=O)[C@@H]2CCCN2C(=O)[C@H](CO)NC(=O)[C@H](CCCNC(=N)N)NC(=O)[C@@H]2CSSC[C@H](NC(=O)[C@@H](N)[C@@H](C)O)C(=O)N[C@@H](CCCNC(=N)N)C(=O)N[C@@H](CO)C(=O)N[C@@H](CO)C(=O)NCC(=O)N[C@@H](CCCNC(=N)N)C(=O)N[C@@H](Cc3ccc(O)cc3)C(=O)N2)CSSC[C@@H](C(=O)N[C@H](C(=O)O)C(C)C)NC(=O)[C@H](C)NC(=O)[C@H](CC(=O)O)NC(=O)[C@H]([C@@H](C)O)NC1=O`, the values for the IC50 in test [1] and in test [2] were 600 nM and 54 nM, respectively.
As to `CC[C@H](C)[C@@H]1NC(=O)[C@H](C)NC(=O)[C@H](CCCNC(=N)N)NC(=O)[C@@H]2CSSC[C@H](NC(=O)[C@H](Cc3ccc(O)cc3)NC(=O)[C@H](CCCNC(=N)N)NC(=O)CNC(=O)[C@H](CO)NC(=O)[C@H](CO)NC(=O)[C@H](CCCNC(=N)N)NC(=O)[C@@H](NC(=O)[C@@H](N)[C@@H](C)O)CSSC[C@@H](C(=O)N[C@H](C(=O)O)C(C)C)NC(=O)[C@H](C)NC(=O)[C@H](CC(=O)O)NC(=O)[C@H]([C@@H](C)O)NC1=O)C(=O)N[C@@H](CCCNC(=N)N)C(=O)N[C@@H](CO)C(=O)N1CCC[C@H]1C(=O)N[C@@H](Cc1ccc(O)cc1)C(=O)N[C@@H](CC(=O)O)C(=O)N[C@@H](CCCNC(=N)N)C(=O)N[C@@H](CCCNC(=N)N)C(=O)N[C@@H](CCCNC(=N)N)C(=O)N[C@@H](CCCNC(=N)N)C(=O)N[C@@H](Cc1ccc(O)cc1)C(=O)N2`, the IC50 in test [1] was more than 10000 nM; in test [2] it was 185 nM.

These data come from ChEMBL document CHEMBL5346973 (J Med Chem, 2023).
